# Experimental data from US20150119394A1, “Insulin-Like Growth Factor-1 Receptor Inhibitors” (Merck Sharp & Dohme Corp., priority 2012, published 2015).
# Molecular target: T1, intracellular kinase domain of human IGF-1R (GST fusion protein) (Homo sapiens, UniProt P08069)
# T1 construct: IGFRK and IRK enzyme used for the assay was intracellular kinase domain of human IGF-1R; GST; made in house
# Assay: In vitro IGF-1R kinase assay (HTRF)
# Format: biochemical
# Conditions: ATP 20 μM, IGFRK 0.25 nM
# Procedure: The in vitro kinase assays using IGF-1R and IR kinase GST fusion proteins were conducted using a homogeneous time-resolved fluorescence (HTRF) format. Kinase reactions were carried out in a 384-well plate format in a final volume of 20 μL. The standard enzyme reaction buffer consisted of 50 mM Tris HCL (pH: 7.4), 1 mM EGTA, 10 mM MgCl2, 2 mM DTT, 0.01% Tween-20, IGF-1R/IR kinase enzyme, poly GT peptide substrate (Perkin Elmer [Ulight Glu-Tyr (4:1)]n) and ATP [concentration equivalent to Kmapp] […] Briefly, 2.5 μL enzyme and 2.5 μL inhibitor was preincubated for 10 minutes at 23° C. followed by the addition of 2.5 μL of poly GT substrate (final concentration of 50 nM). Reaction was initiated with the addition of 2.5 μL of ATP (final concentration of 20 μM for IGF-1R assay and 10 μM for IR assay). After 1 hour incubation at 23° C., the kinase reaction was stopped with the addition of 5 μL EDTA (final concentration of 10 mM in 20 μL). Europium cryptate—labeled antiphosphotyrosine antibody PY20 (5 μL) was added (final concentration of 2 nM) and the mixture was allowed to equilibrate for 1 hour at 23° C. followed by reading the plate in an Envision plate reader.
# The intensity of light emission at 665 nm was directly proportional to the level of substrate phosphorylation. The IC50 values for inhibitors were determined by a four-parameter sigmoidal curve fit (Sigma plot or Graph pad).
# IGFRK and IRK enzyme used for the assay was intracellular kinase domain of human IGF-1R and human IR cloned and expressed as GST fusion proteins using the baculovirus expression system and purified using glutathione—Sepharose column.
# T1 sequence (P08069 999-1274 limits assumed): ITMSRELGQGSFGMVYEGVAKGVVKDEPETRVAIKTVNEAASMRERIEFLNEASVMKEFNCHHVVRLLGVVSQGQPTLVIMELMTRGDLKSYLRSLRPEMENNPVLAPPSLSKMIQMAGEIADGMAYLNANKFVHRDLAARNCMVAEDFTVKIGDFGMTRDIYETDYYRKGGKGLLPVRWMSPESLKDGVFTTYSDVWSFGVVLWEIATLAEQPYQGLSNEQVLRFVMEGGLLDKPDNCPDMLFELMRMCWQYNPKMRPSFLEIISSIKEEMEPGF
row,IC50,Compound
1,> 1 µM,"COc1ccc(-c2ccccc2OC[C@@H]2CN(S(=O)(=O)c3c(C(N)=O)[nH]c4ccc(Cl)cc34)CCO2)cn1 [Compound 61, (S)-5-chloro-3-((2-((2-(6-methoxypyridin-3-yl)phenoxy)methyl)morpholino)sulfonyl)-1H-indole-2-carboxamide]"
2,> 1 µM,"NC(=O)c1[nH]c2ccc(Cl)cc2c1S(=O)(=O)N1CCO[C@H](COc2ccccc2-c2ccccc2F)C1 [Compound 62, (S)-5-chloro-3-((2-(((2′-fluoro-[1,1′-biphenyl]-2-yl)oxy)methyl)morpholino)sulfonyl)-1H-indole-2-carboxamide]"
3,> 1 µM,"Cc1ncccc1-c1ccccc1OC[C@@H]1CN(S(=O)(=O)c2c(C(N)=O)[nH]c3ccc(Cl)cc23)CCO1 [Compound 63, (S)-5-chloro-3-((2-((2-(2-methylpyridin-3-yl)phenoxy)methyl)morpholino)sulfonyl)-1H-indole-2-carboxamide]"
4,> 1 µM,"NC(=O)c1[nH]c2ccc(Cl)cc2c1S(=O)(=O)N1CCO[C@H](COc2ccccc2-c2cccc(F)c2)C1 [Compound 64, (S)-5-chloro-3-((2-(((3′-fluoro-[1,1′-biphenyl]-2-yl)oxy)methyl)morpholino)sulfonyl)-1H-indole-2-carboxamide]"
5,0.0187 µM,"Cc1cc(OC[C@@H]2CN(S(=O)(=O)c3c(C(N)=O)[nH]c4ccc(Cl)cc34)CCO2)ccc1-c1cccnc1 [Compound 66, (S)-5-chloro-3-((2-((3-methyl-4-(pyridin-3-yl)phenoxy)methyl)morpholino)sulfonyl)-1H-indole-2-carboxamide]"
6,0.0043 µM,"Cc1cc(OC[C@@H]2CN(S(=O)(=O)c3c(C(N)=O)[nH]c4ccc(Cl)cc34)CCO2)ccc1-c1ccncc1 [Compound 67, (S)-5-chloro-3-((2-((3-methyl-4-(pyridin-4-yl)phenoxy)methyl)morpholino)sulfonyl)-1H-indole-2-carboxamide]"
7,0.0379 µM,"Cc1cc(OC[C@@H]2CN(S(=O)(=O)c3c(C(N)=O)[nH]c4ccc(Cl)cc34)CCO2)ccc1-c1cccnc1F [Compound 68, (S)-5-chloro-3-((2-((4-(2-fluoropyridin-3-yl)-3-methylphenoxy)methyl)morpholino)sulfonyl)-1H-indole-2-carboxamide]"
8,> 0.1 µM,"COc1ccc(-c2ccc(OC[C@@H]3CN(S(=O)(=O)c4c(C(N)=O)[nH]c5ccc(Cl)cc45)CCO3)cc2C)cn1 [Compound 69, (S)-5-chloro-3-((2-((4-(6-methoxypyridin-3-yl)-3-methylphenoxy)methyl)morpholino)sulfonyl)-1H-indole-2-carboxamide]"
9,0.0759 µM,"COc1cc(-c2ccc(OC[C@@H]3CN(S(=O)(=O)c4c(C(N)=O)[nH]c5ccc(Cl)cc45)CCO3)cc2C)ccn1 [Compound 70, (S)-5-chloro-3-((2-((4-(2-methoxypyridin-4-yl)-3-methylphenoxy)methyl)morpholino)sulfonyl)-1H-indole-2-carboxamide]"
10,0.0053 µM,"Cc1cc(OC[C@@H]2CN(S(=O)(=O)c3c(C(N)=O)[nH]c4ccc(Cl)cc34)CCO2)ccc1-c1cncnc1 [Compound 71, (S)-5-chloro-3-((2-((3-methyl-4-(pyrimidin-5-yl)phenoxy)methyl)morpholino)sulfonyl)-1H-indole-2-carboxamide]"
11,0.0133 µM,"Cc1cc(OC[C@@H]2CN(S(=O)(=O)c3c(C(N)=O)[nH]c4ccc(Cl)cc34)CCO2)ccc1-c1ccnc(F)c1 [Compound 72, (S)-5-chloro-3-((2-((4-(2-fluoropyridin-4-yl)-3-methylphenoxy)methyl)morpholino)sulfonyl)-1H-indole-2-carboxamide]"
12,0.03 µM,"Cc1cc(OC[C@@H]2CN(S(=O)(=O)c3c(C(N)=O)[nH]c4ccc(Cl)cc34)CCO2)ccc1-c1ccc(F)nc1 [Compound 73, (S)-5-chloro-3-((2-((4-(6-fluoropyridin-3-yl)-3-methylphenoxy)methyl)morpholino)sulfonyl)-1H-indole-2-carboxamide]"
13,> 1 µM,NC(=O)c1[nH]c2ccc(Cl)cc2c1S(=O)(=O)N1CCO[C@H](COc2cncc(-c3cc(C(F)(F)F)ccc3F)c2)C1 [Compound 75]
14,> 1 µM,"NC(=O)c1[nH]c2ccc(Cl)cc2c1S(=O)(=O)N1CCO[C@H](COc2cncc(-c3ccccc3)c2)C1 [Compound 76, (S)-5-chloro-3-((2-(((5-phenylpyridin-3-yl)oxy)methyl)morpholino)sulfonyl)-1H-indole-2-carboxamide]"
15,0.204 µM,"NC(=O)c1[nH]c2ccc(Cl)cc2c1S(=O)(=O)N1CCO[C@H](COc2cnc(-c3ccccc3)cn2)C1 [Compound 77, (S)-5-chloro-3-((2-(((5-phenylpyrazin-2-yl)oxy)methyl)morpholino)sulfonyl)-1H-indole-2-carboxamide]"
16,> 1 µM,NC(=O)c1[nH]c2ccc(Cl)cc2c1S(=O)(=O)N1CCO[C@H](COc2cncc(-c3ccccc3F)c2)C1 [Compound 78]
17,0.0254 µM,"NC(=O)c1[nH]c2ccc(Cl)cc2c1S(=O)(=O)N1CCO[C@H](COc2ccc(-c3ccccc3)nc2)C1 [Compound 79, (S)-5-chloro-3-((2-(((6-phenylpyridin-3-yl)oxy)methyl)morpholino)sulfonyl)-1H-indole-2-carboxamide]"
18,0.0471 µM,"NC(=O)c1[nH]c2ccc(Cl)cc2c1S(=O)(=O)N1CCO[C@H](COc2cccc(-c3ccccc3)n2)C1 [Compound 80, (S)-5-chloro-3-((2-(((6-phenylpyridin-2-yl)oxy)methyl)morpholino)sulfonyl)-1H-indole-2-carboxamide]"
19,> 1 µM,"NC(=O)c1[nH]c2ccc(Cl)cc2c1S(=O)(=O)N1CCO[C@H](COc2ccc(-c3ccccc3)cn2)C1 [Compound 81, (S)-5-chloro-3-((2-(((5-phenylpyridin-2-yl)oxy)methyl)morpholino)sulfonyl)-1H-indole-2-carboxamide]"
20,0.0132 µM,"Cc1cc(-c2ccc(OC[C@@H]3CN(S(=O)(=O)c4c(C(N)=O)[nH]c5ccc(Cl)cc45)CCO3)cc2)cc(C)n1 [Compound 82, (S)-5-chloro-3-((2-((4-(2,6-dimethylpyridin-4-yl)phenoxy)methyl)morpholino)sulfonyl)-1H-indole-2-carboxamide]"
21,0.097 µM,"NC(=O)c1[nH]c2ccc(Cl)cc2c1S(=O)(=O)N1CCO[C@H](COc2ccc(-c3ccccc3Cl)cc2)C1 [Compound 83, (S)-5-chloro-3-((2-(((2′-chloro-[1,1′-biphenyl]-4-yl)oxy)methyl)morpholino)sulfonyl)-1H-indole-2-carboxamide]"
22,0.0097 µM,"NC(=O)c1[nH]c2ccc(Cl)cc2c1S(=O)(=O)N1CCO[C@H](COc2cccc(-c3ccnc(Cl)c3)c2)C1 [Compound 85, (S)-5-chloro-3-((2-((3-(2-chloropyridin-4-yl)phenoxy)methyl)morpholino)sulfonyl)-1H-indole-2-carboxamide]"
23,0.0049 µM,"NC(=O)c1[nH]c2ccc(Cl)cc2c1S(=O)(=O)N1CCO[C@H](COc2cccc(-c3ccc(Cl)nc3)c2)C1 [Compound 86, (S)-5-chloro-3-((2-((3-(6-chloropyridin-3-yl)phenoxy)methyl)morpholino)sulfonyl)-1H-indole-2-carboxamide]"
24,0.067 µM,"Cc1cc(OC[C@@H]2CN(S(=O)(=O)c3c(C(N)=O)[nH]c4ccc(Cl)cc34)CCO2)ccc1-c1ccc(Cl)nc1 [Compound 88, (S)-5-chloro-3-((2-((4-(6-chloropyridin-3-yl)-3-methylphenoxy)methyl)morpholino)sulfonyl)-1H-indole-2-carboxamide]"
25,0.136 µM,"NC(=O)c1[nH]c2ccc(Cl)cc2c1S(=O)(=O)N1CCO[C@H](COc2cc3ccccc3nn2)C1 [Compound 89, (S)-5-chloro-3-((2-((cinnolin-3-yloxy)methyl)morpholino)sulfonyl)-1H-indole-2-carboxamide]"
26,> 0.1 µM,"NC(=O)c1[nH]c2ccc(Cl)cc2c1S(=O)(=O)N1CCO[C@H](COc2cccc3cccnc23)C1 [Compound 90, (S)-5-chloro-3-((2-((quinolin-8-yloxy)methyl)morpholino)sulfonyl)-1H-indole-2-carboxamide]"
27,> 0.1 µM,"NC(=O)c1[nH]c2ccc(Cl)cc2c1S(=O)(=O)N1CCO[C@H](COc2ncnc3ccccc23)C1 [Compound 91, (S)-5-chloro-3-((2-((quinazolin-4-yloxy)methyl)morpholino)sulfonyl)-1H-indole-2-carboxamide]"
28,> 0.1 µM,"Cn1nc(-c2ccccc2)cc1OC[C@@H]1CN(S(=O)(=O)c2c(C(N)=O)[nH]c3ccc(Cl)cc23)CCO1 [Compound 92, (S)-5-chloro-3-((2-(((1-methyl-3-phenyl-1H-pyrazol-5-yl)oxy)methyl)morpholino)sulfonyl)-1H-indole-2-carboxamide]"

row,Compound,IC50
1,"(S)-5-chloro-3-((2-((3′-(dimethylamino)-[1,1′-biphenyl]-3-yl)oxy)methyl)morpholino)sulfonyl)-1H-indole-2-carboxamide [Compound 9]",0.22 µM
2,(S)-5-chloro-3-((2-((5-(4-methoxyphenyl)pyridin-3-yl)oxy)methyl)morpholino)sulfonyl)-1H-indole-2-carboxamide [Compound 74],> 1 µM
